According to patent publication US7884122B2, “Extended release formulation and method of treating adrenergic dysregulation” (Shionogi Pharma, Inc., priority 2007, dated 2011):
Values after ≈ are worked out from the molar mass of the structure shown.

Assays:
[1] = traditional oral formulation of clonidine; cited from earlier work
[2] = test system: systolic and diastolic blood pressure; assay: animal or person; conditions: Homo sapiens, 600 h, Systolic BP vs AUCτ at Day 25, sigmoidal Emax model
Experimental: Mean baseline ABPM data for the three treatment groups were compared with mean data obtained on Day 26 (last day of treatment) and on Days 27 and 28. A more detailed PK/PD analysis was conducted by using the individual patient ABPM data to compare the blood pressure profile at Baseline and on Day 26 of treatment. The daytime (0- to 12-hour) intervals were used in the analysis, since pharmacokinetic data were collected on Day 25, over the daytime 12-hour dosing interval at steady state. In order to investigate the maintenance of effect at the tail end of the inter-dosing interval, differences between the SBP, DBP, and HR values at Baseline and the last two hours in the inter-dosing interval (Hours 11 and 12) on Day 26 were calculated for each patient. Paired t-tests were performed to test the significance of these differences between Baseline and the last two measuring times. The approach taken to quantify the effects of clonidine on blood pressure was to calculate the difference between the areas under the BP vs. time curves (AUCBP) at Baseline and on Day 26. These values were used to relate the pharmacodynamic effect to dose, as well as to conduct the PK/PD analyses.
Pharmacokinetic-pharmacodynamic modeling was conducted using the blood pressure response data and the Cmax, Cmin and AUCτ values at Day 25 of dosing. […]

Clc1cccc(Cl)c1N=C1NCCN1 [clonidine, 2,6-dichloro-N-2-imidazolidinylidene benzeneamine]
biological half-life [1]: about four to six hours | EC50 [2]: 4.7 ng/mL (≈ 0.0204 µM) | EC90 [2]: 6.69 ng/mL (≈ 0.0291 µM)
